What was measured:
[1] = DPPH free-radical scavenging assay; type: biochemical; conditions: result in words; figure values in mg AAE/100 g not given
Description: (§1) The free-radical scavenging activity of 1 and 2 in relation to the 2,2-diphenyl-1-picrylhydrazyl (DPPH) radical was measured using the colorimetric method described by Brand-Williams (1995), and the results are expressed in mg of ascorbic acid equivalent per 100 g of material (AAE/100 g). To evaluate the capacity of hydrogen atom transfer (HAT) of the isolated compounds, male Wistar rat brain homogenate was used as substrate for the production of thiobarbituric acid reactive substances (TBARS) produced by Fe^2+-induced oxidation undertaken at 37 °C, following the experimental conditions described elsewhere. The inhibition of lipid peroxidation was expressed as % of inhibition. The animal protocol was approved by the Ethics Committee (UEPG, protocol 47/2017).

[2] = test system: Wistar rat brain homogenate; test: Inhibition of lipid peroxidation (TBARS, Fe2+-induced oxidation) in rat brain homogenate; type: biochemical; conditions: at 40 mg/L
Description: as §1

[3] = MTT cytotoxicity assay, A549; type: cell-based, human; conditions: human, A549 lung adenocarcinoma epithelial cells, A549, 48 h
Description: (§2) The in vitro cytotoxic effect of 1 and 2 compounds were analyzed in relation to A549 (lung adenocarcinoma epithelial cells—BCRJ code: 0033), HepG2 (human hepatoma carcinoma cells—BCRJ code: 0291), and IMR90 (human lung fibroblast—BCRJ code: 0118) cell lines using MTT (3-(4,5-dimethylthiazol-2-yl)-2,5-diphenyl tetrazolium bromide) (Sigma-Aldrich, COD—M5655) assay. All cell lines were maintained in Dulbecco’s Modified Eagle’s Medium/Nutrient Mixture F-12 Ham (Sigma-Aldrich, COD—D8900), with added 10% fetal bovine serum (FBS, Gibco, COD—16000044) and 100 IU penicillin/100 µg streptomycin (Sigma-Aldrich, COD—P4333). The cell lines were grown in a humidified incubator at 37 °C containing 5% CO2. Briefly, the cells were seeded into 96-well plates at a density of 1 × 10^4 cells/well (HepG2 and A549), 5 × 10^3 cells/well (IMR90), 100 μL/well, and after 24 h, the cells were treated with 100 μL of serial concentrations (10–500 μM) of compounds 1 and 2 for 48 h. The stock solution of extracts contained 5% of dimethyl sulfoxide (DMSO) at a final concentration of 0.2% in cell medium for all in vitro assays. The IC50, GI50, and LC50 parameters were performed in accordance with the method described by do Carmo (2018), in which IC50 is the concentration of the agent that inhibits growth by 50%, calculated as (T/C) × 100 = 50, where T = number of cells at time t of treatment; C = control cells at time t of treatment; GI50 is the concentration of the agent that inhibits growth by 50% relative to untreated cells, calculated as ((T − T0)/(C − T0)) × 100 = 50, where T and C are the number of treated and control cells, respectively, at time t of treatment, and T > T0 where T0 is the number of cells at time zero; LC50 is the concentration of the agent that results in a net loss of 50% cells relative to the number at the start of treatment, calculated as ((T − T0)/T0) × 100 = −50, where T < T0. The experiments were conducted in quadruplicate on three different days to assure the reproducibility of the generated data.

[4] = test system: A549 (lung adenocarcinoma epithelial cells); test: MTT cytotoxicity assay, A549; type: cell-based, human; conditions: Homo sapiens, A549, 48 h; for IC50: 10–500 μM, read-out: IC50 (cell viability); for GI50: read-out: GI50 (antiproliferative effect)
Description: as §2

[5] = MTT cytotoxicity assay, HepG2; type: cell-based, human; conditions: human, HepG2 hepatoma carcinoma cells, HepG2, 48 h
Description: as §2

[6] = test system: HepG2 (human hepatoma carcinoma cells); test: MTT cytotoxicity assay, HepG2; type: cell-based; conditions: Homo sapiens, HepG2, 48 h; for IC50: 10–500 μM, read-out: IC50 (cell viability); for GI50: read-out: GI50 (antiproliferative effect)
Description: as §2

[7] = MTT cytotoxicity assay, IMR90; type: cell-based, human; conditions: human, IMR90 lung fibroblasts, IMR90, 48 h, read-out: LC50 (cell death)
Description: as §2

[8] = test system: IMR90 (human lung fibroblast); test: MTT cytotoxicity assay, IMR90; type: cell-based; conditions: Homo sapiens, IMR-90, IMR90, 48 h; for IC50: 10–500 μM, read-out: IC50 (cell viability); for GI50: read-out: GI50 (antiproliferative effect)
Description: as §2

A549 cancer cells = test: Intracellular ROS measurement (DCFH-DA fluorescence), A549; type: cell-based, human; conditions: A549, 10, 50 and 100 μM (legend; method says μg/mL), 1 h
Description: (§3) In order to assess the in vitro antioxidant/oxidant potential of 1 and 2, intracellular ROS generation was measured using a fluorescence technique as described by Carmo (2019). Briefly, A549 cancer cells (6 × 10^4/well) and IMR90 normal cells (2 × 10^4/well) were exposed to concentrations of 10, 50, and 100 μg/mL of 1 and 2 compounds, culture medium (negative control), and 15 μmol/L H2O2 (positive control), for 1 h in DCFH-DA solution ([…]), at 37 °C and 5% CO2. Subsequently, cells were washed with PBS and a H2O2 solution (15 μmol/L) added for recording of fluorescence. Intracellular fluorescence intensity of cells was measured at an excitation wavelength of 485 nm and at an emission wavelength of 538 nm. The assays were performed in quadruplicate on three different days.

IMR90 normal cells = test: Intracellular ROS measurement (DCFH-DA fluorescence), IMR90; type: cell-based, human; conditions: IMR90, 10, 50 and 100 μM (legend; method says μg/mL), 1 h
Description: as §3

CC1=CC=C[C@]2(C)CC(=O)C(=C(C)C)C[C@H]12 (relative stereo) [Compound 1, selina-1,3,7(11)-trien-8-one]
free-radical scavenging activity (DPPH assay) [1]: insignificant free-radical scavenging activity
inhibition of lipoperoxidation in rat brain homogenate [2]: did not show inhibitory activity
LC50 (concentration causing 50% cell death) at 48 h [3]: > 500 µM
IC50 [4]: > 500 µM
GI50 [4]: 591 µM
LC50 (concentration causing 50% cell death) at 48 h [5]: > 500 µM
IC50 [6]: > 500 µM
GI50 [6]: 289 µM
CC50 at 48 h [7]: > 500 µM
IC50 [8]: > 500 µM
GI50 [8]: 185 µM
intracellular ROS generation (A549 cancer cells): inducing reactive oxygen species (ROS) generation
intracellular ROS generation (IMR90 normal cells): inducing reactive oxygen species (ROS) generation

CC1=COC=C[C@]2(C)CC(=O)C(=C(C)C)C[C@H]12 (relative stereo) [Compound 2, oxidoselina-1,3,7(11)-trien-8-one]
free-radical scavenging activity (DPPH assay) [1]: insignificant free-radical scavenging activity
inhibition of lipoperoxidation in rat brain homogenate [2]: did not show inhibitory activity
IC50 [4]: > 500 µM
GI50 [4]: 359 µM
IC50 [6]: 525 µM
GI50 [6]: 97.5 µM
CC50 at 48 h [7]: > 500 µM
IC50 [8]: > 500 µM
GI50 [8]: 14.9 µM
intracellular ROS generation (A549 cancer cells): inducing reactive oxygen species (ROS) generation
intracellular ROS generation (IMR90 normal cells): inducing reactive oxygen species (ROS) generation
